Experimental data reported in PMC4964386, “Synthesis, Characterization, and Cytotoxicity of the First Oxaliplatin Pt(IV) Derivative Having a TSPO Ligand in the Axial Position” (International Journal of Molecular Sciences, 2016).
Like-named read-outs stand apart in the source and are kept apart here.

Tests used:
TSPO = biological target: T1, TSPO (Rattus norvegicus, UniProt P16257); assay: TSPO receptor binding assay, displacement of [3H]-PK 11195
T1 construct: Membranes from C6 rat glioma cells were prepared as described by Piccinonna et al; endogenous in cells; host or cells: C6 rat glioma cell membranes
Procedure: Membranes from C6 rat glioma cells were prepared as described by Piccinonna et al. with minor modifications. In brief, cells scraped in PBS and harvested, were then homogenized with a Brinkman Polytron (Kinematica AG, Münstertäler, Germany). After centrifugation at 37,000× g for 30 min at 4 °C the resulting pellet was resuspended in ice-cold 10 mM PBS and stored at −80 °C until use.

[1] = system: human MCF7 breast carcinoma; assay: MTT cell proliferation assay, MCF7; assay type: cell-based; settings: MCF7, 72 h treatment; for IC50: MTT, read-out: IC50 (concentration inducing 50% cell survival inhibition)
Procedure: (§1) The cytotoxicity of the compounds, expressed as IC50 values after 72 h incubation (except in two cases where it is expressed as the % of cell viability at the maximum concentration tested of 100 μM) are reported in Table 3.
(§2) Human MCF7 breast carcinoma, human U87 glioblastoma, human LoVo colon adenocarcinoma cell lines and C6 rat glioma cells were used. As recommended for these cell lines, the base medium used (EuroClone, Pero (MI), Italy) was RPMI for MCF7 cells, DMEM for U87 and C6 cells, and F-12/HAM for LoVo cells, enriched with fetal bovine serum (10%), penicillin (100 U/mL)/streptomycin (100 μg/mL) (1%) and glutamine 200 mM (1%) (EuroClone, Pero (MI), Italy). Cells were incubated at 37 °C under an atmosphere containing 5% CO2.
(§3) Determination of cell growth inhibition was performed on MCF7, U87 and LoVo cell lines, using the 3-[4,5-dimethylthiazol-2-yl]-2,5-diphenyltetrazoliumbromide (MTT) assay. The determination of the % of cell viability after treatment with the test compounds, was performed as described by Denora et al.. Briefly, cells were dispensed on 96 microtiter plates at a density of 5000 cells/well and, after overnight incubation, were exposed for 72 h to solutions of the compounds with concentration in the range 0.01–100 µM. After addition of MTT (10 μL of 0.5% w/v in PBS) and incubation for an additional 3 h at 37 °C, the cells were lysed with 100 μL of DMSO/EtOH 1:1 (v/v) solution, dispensed in each well. A PerkinElmer 2030 multilabel reader Victor TM X3 (manufactured for WALLAC Oy, Turku, Finland by PerkinElmer Singapore was used for the absorbance determination at 570 nm.

human U87 glioblastoma = assay: MTT cell proliferation assay, U87; assay type: cell-based; settings: U87, 72 h treatment, read-out: IC50 (concentration inducing 50% cell survival inhibition)
Procedure: as §1, §2, §3

[2] = system: human LoVo colon adenocarcinoma; assay: MTT cell proliferation assay, LoVo; assay type: cell-based; settings: 72 h treatment; for IC50: MTT, read-out: IC50 (concentration inducing 50% cell survival inhibition)
Procedure: as §1, §2, §3

LoVo cells = assay: Cell cycle analysis by flow cytometry (propidium iodide); assay type: cell-based, human; settings: for Perturbation of cell cycle progression: 24 h treatment at IC50 concentrations (compound 2 at 100 µM), FCM
Procedure: Figure 9 Flow cytometric analysis of LoVo cells stained with propidium iodide after 24 h of treatment with test compounds.
Then, the experimental procedure described in our previous work was performed.

LoVo colon cancer cells = assay: Platinum cellular uptake by ICP-MS; assay type: cell-based, human
Text: As already reported, oxaliplatin is a chemotherapeutic drug mainly used for the treatment of colorectal cancer, therefore, we extended our investigation only to LoVo cells. First we measured the intracellular accumulation of platinum by ICP-MS. […] Most likely, organic cation transporters (OCT) may facilitate the uptake of oxaliplatin [47] at short time exposure and then, after saturation, the passive diffusion of the most lipophilic compounds becomes prominent.
A Varian 820-MS ICP mass spectrometer (Varian Italia, Cernusco sul Naviglio (MI), Italy) was used to perform the inductively coupled plasma mass spectrometry (ICP-MS) analyses for the determination of the platinum cellular uptake in LoVo colon cancer cells. Cells were seeded in 60 mm tissue culture dishes at a density of 500,000 cells/dish and incubated at 37 °C in a humidified atmosphere with 5% CO2. […] The platinum content was determined by ICP-MS.

[3] = Stability in physiological-like solution by 1H-NMR and HPLC; assay type: physicochemical
Procedure: The stability of 3 was investigated by ^1H-NMR spectroscopy in DMSO-d6/D2O (5:95, v/v) at pH 7.4 (2 mM phosphate buffer) and 37 °C. […] After 8 h of incubation we observed a decrease in intensity of the peaks of 3 and the concomitant increase of a new set of peaks, marked with ● in Figure 8b (H5, 8.09 ppm; H7, 7.44 ppm; H16/20 7.35 ppm), that was assigned to compound 2 by comparison with a spectrum of the TSPO ligand recorded in similar conditions.
An HPLC analysis of the sample was performed after 108 h incubation at 37 °C. […] No reduction of the Pt(IV) complex occurred under the conditions used in this experiment.
The sample was incubated at 37 °C in the dark and ^1H-NMR spectra recorded at different time intervals.
The NMR solution was further analyzed by HPLC analysis. Stationary phase: Waters Symmetry RP-C18 column, 5 μm, 4.6 × 250 mm, 100 Å. Mobile phase: phase A = water and phase B = Acetonitrile; isocratic elution 5% phase B for 5 min, linear gradient from 5% to 50% phase B in 10 min, isocratic elution 50% phase B for 7 min, linear gradient from 50% to 5% phase B in 2 min, isocratic elution 5% phase B for 6 min. Flow rate = 0.7 mL·min^−1. UV-visible detector set at 220 nm.

[4] = Homo sapiens, 100 µM (maximum concentration tested)
[5] = after 4 h treatment at IC50 concentration
[6] = after 24 h treatment at IC50 concentration

T1 sequence (P16257 whole entry): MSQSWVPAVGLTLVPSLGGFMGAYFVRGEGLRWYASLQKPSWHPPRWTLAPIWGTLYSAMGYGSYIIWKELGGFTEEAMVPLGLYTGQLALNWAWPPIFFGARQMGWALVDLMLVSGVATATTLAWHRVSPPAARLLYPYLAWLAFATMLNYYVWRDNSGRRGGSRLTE

CCCN(CCC)C(=O)Cc1c(-c2ccc(OCC(=O)O)cc2)nc2c(Cl)cc(Cl)cn12 [compound 2, 2-(4-(6,8-dichloro-3-(2-(dipropylamino)-2-oxoethyl)imidazo[1,2-a]pyridin-2-yl)phenoxy)acetic acid]
IC50 (TSPO): 0.00212 ± 0.0001 µM
viability at 100 µM [1, 4]: 53%
IC50 (human U87 glioblastoma; Homo sapiens): 70.2 ± 0.3 µM
viability at 100 µM [2, 4]: 65%
Perturbation of cell cycle progression (LoVo cells): induced a sub-G0/G1 cell population

O=C1[O][Pt]2([Cl])([O]CCO)([NH]C3CCCCC3[NH]2)[O]C1=O (mixture of isomers) [compound 1, Cis,trans,cis-[Pt(ethanedioato)Cl(2-hydroxyethanolato)(1R,2R-DACH)]]
IC50 [1]: 8.2 ± 0.4 µM
IC50 (human U87 glioblastoma): 9.1 ± 0.4 µM
IC50 [2]: 2.5 ± 0.5 µM
Uptake by LoVo Cells (ppb of Pt) (LoVo colon cancer cells; [5]): 0.18 ± 0.01 ppb of Pt
Uptake by LoVo Cells (ppb of Pt) (LoVo colon cancer cells; [6]): 0.59 ± 0.03 ppb of Pt
Perturbation of cell cycle progression (LoVo cells): no notable changes compared to oxaliplatin

CCCN(CCC)C(=O)Cc1c(-c2ccc(OCC(=O)OCC[O][Pt]3([Cl])[O]C(=O)C(=O)[O]3)cc2)nc2c(Cl)cc(Cl)cn12.N[C@@H]1CCCC[C@H]1N [compound 3, cis,trans,cis-[Pt(ethanedioato)Cl{2-(2-(4-(6,8-dichloro-3-(2-(dipropylamino)-2-oxoethyl)imidazo[1,2-a]pyridin-2-yl)phenoxy)acetate)-ethanolato}(1R,2R-DACH)]]
IC50 (TSPO; displacement of [3H]-PK 11195 (0.7 nM), Table 2: rat cerebral cortex, method: C6 rat glioma cell membranes, 90 min, 25 °C, read-out: IC50 TSPO): 0.0186 ± 0.00084 µM
IC50 [1]: 14.1 ± 0.1 µM
IC50 (human U87 glioblastoma): 16.1 ± 0.3 µM
IC50 ([2]; listed as cis,trans,cis-[Pt(ethanedioato)Cl{2-(2-(4-(6,8-dichloro-3-(2-(dipropylamino)-2-o))))): 2.31 µM
IC50 [2]: 2.3 ± 0.1 µM
Uptake by LoVo Cells (ppb of Pt) (LoVo colon cancer cells; [5]): 0.33 ± 0.02 ppb of Pt
Uptake by LoVo Cells (ppb of Pt) (LoVo colon cancer cells; [6]): 0.77 ± 0.02 ppb of Pt
Induction of apoptosis (LoVo cells; 24 h treatment): did not induce apoptosis
Perturbation of cell cycle progression (LoVo cells): no notable changes compared to oxaliplatin
Half-life of the complex (hydrolysis of ester bond) ([3]; DMSO-d6/D2O (5:95, v/v), pH 7.4 (2 mM phosphate buffer), 37 °C, 52 μM, from NMR): approximately 24 h
Time after which signals disappeared completely ([3]; DMSO-d6/D2O (5:95, v/v), pH 7.4 (2 mM phosphate buffer), 37 °C, 1H-NMR): 108 h
Degradation behaviour in physiological-like conditions ([3]; pH 7.4, 37 °C, HPLC after 108 h incubation): slow hydrolysis of the ester bond

O=C1[O][Pt-2]2([NH2+]C3CCCC[C@H]3[NH2+]2)[O]C1=O (stereo in doubt) [Oxaliplatin, trans-1R,2R-diaminocyclohexane(oxalato)platinum(II)]
IC50 (human U87 glioblastoma): 3.1 ± 0.2 µM
IC50 [2]: 0.46 ± 0.01 µM
Uptake by LoVo Cells (ppb of Pt) (LoVo colon cancer cells; [5]): 0.24 ± 0.04 ppb of Pt
Uptake by LoVo Cells (ppb of Pt) (LoVo colon cancer cells; [6]): 0.38 ± 0.01 ppb of Pt
Perturbation of cell cycle progression (LoVo cells): delayed the S-phase and started to accumulate cells in G2/M-phase and G0/G1 phase
